Tests used:
[1] = organism: Rattus norvegicus; assay: Inhibition was measured for [3H]GABA-uptake from rat synaptosomal membrane.; type: functional
[2] = organism: Rattus norvegicus
[3] = organism: Rattus norvegicus; remark: listed apart in the source

Ki [1] [µM]	Km [2] [µM]	SMILES	Vmax (pM min-1 mg-1) [3]
104		O=C(O)C1=CC(=C(c2ccccc2)c2ccccc2)CNC1	
	4.3	NCCCC(=O)O	881
12.9		CN1CC(C(=O)O)=CC(=C(c2ccccc2)c2ccccc2)C1	
3.8		O=C(O)C1CCCNC1 (stereo not given) [NIPECOTIC ACID]	
